Results taken from EP4810052A2, “HCRHR2 SELECTIVE POLYPEPTIDES” (Gubra A/S, priority 2023, dated 2026).
Where two headings read alike, the source gives them in different places. Blank lines part the entries; values can stand above or below the molecule they belong to. Starred links: 1 amine or outer side, 2 acyl side, 3 side chain; linkers in the order of their positions; H or OH if unused. Non-standard residues stand in square brackets, D forms with d. Residues, ends and D or L forms follow the SMILES beside them. Groups on a side chain read outwards from the residue. *: point of attachment. C20 diacid = O=C(O)CCCCCCCCCCCCCCCCCCC(=O)*; γGlu = O=C(O)[C@H](CCC(=O)[*:2])N[*:1]; NMeI = CC[C@H](C)[C@H](NC)C(=O)O; Nle = CCCC[C@H](N)C(=O)O; AEEA = NCCOCCOCC(=O)O; Aib = CC(C)(N)C(=O)O

Experiments:
hCRHR1 = target: T1, hCRHR1 (Homo sapiens, UniProt P34998); test: HTRF cAMP assay, determination of hCRHR1 potency (peptide libraries 5 conc., purified peptides 11 conc.); format: cell-based
T1 sequence (P34998 24-415): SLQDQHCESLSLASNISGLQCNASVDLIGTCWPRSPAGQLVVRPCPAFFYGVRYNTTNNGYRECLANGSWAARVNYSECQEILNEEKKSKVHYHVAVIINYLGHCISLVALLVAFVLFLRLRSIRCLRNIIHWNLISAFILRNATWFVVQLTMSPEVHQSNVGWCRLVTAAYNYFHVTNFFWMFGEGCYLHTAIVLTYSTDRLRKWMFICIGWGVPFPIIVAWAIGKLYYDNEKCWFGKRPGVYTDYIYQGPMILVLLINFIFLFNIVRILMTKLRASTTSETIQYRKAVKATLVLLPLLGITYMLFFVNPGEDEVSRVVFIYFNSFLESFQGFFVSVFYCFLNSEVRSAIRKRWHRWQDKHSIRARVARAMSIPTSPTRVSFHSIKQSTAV
Outline: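 CHO-K1 cells stably expressing human CRHR1, thawed from frozen stocks just before use, were stimulated in suspension with agonist peptides. cAMP was measured by HTRF competitive immunoassay (cryptate anti-cAMP antibody vs d2-cAMP).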

hCRHR2 = target: T2, hCRHR2 (Homo sapiens, UniProt Q13324); test: HTRF cAMP assay, determination of hCRHR2 potency (peptide libraries 5 conc., purified peptides 11 conc.); format: cell-based
T2 sequence (Q13324 1-411): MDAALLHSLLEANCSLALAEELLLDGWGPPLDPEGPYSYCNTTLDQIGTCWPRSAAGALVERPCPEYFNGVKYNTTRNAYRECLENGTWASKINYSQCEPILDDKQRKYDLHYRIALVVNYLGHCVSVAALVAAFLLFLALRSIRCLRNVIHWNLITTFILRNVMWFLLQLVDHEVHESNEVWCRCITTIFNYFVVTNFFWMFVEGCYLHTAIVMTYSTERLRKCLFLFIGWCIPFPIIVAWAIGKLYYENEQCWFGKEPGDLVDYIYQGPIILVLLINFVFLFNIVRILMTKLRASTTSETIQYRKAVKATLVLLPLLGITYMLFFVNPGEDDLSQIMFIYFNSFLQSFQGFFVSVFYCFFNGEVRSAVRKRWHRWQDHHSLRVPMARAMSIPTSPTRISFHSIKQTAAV
Outline: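 CHO-K1 cells stably expressing human CRHR2, thawed from frozen stocks just before use and run in suspension; cAMP measured by competitive HTRF immunoassay (cryptate anti-cAMP, d2-cAMP). Agonist peptides tested at 5 (libraries) or 11 (purified) concentrations; EC50 from sigmoid variable-slope nonlinear regression.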

[1] = Table 4, library peptides having X^38 = Nle, read-out: hCRHR1 pEC50 (converted)
[2] = Table 4, library peptides having X^38 = Nle, read-out: hCRHR2 pEC50 (converted)

EC50 (hCRHR1; [1]): 1000 nM
EC50 (hCRHR2; [2]): 0.0398 nM
SMILES: CCCC[C@H](NC(=O)[C@@H](NC(=O)[C@H](CCC(=O)O)NC(=O)C(C)(C)NC(=O)[C@H](CC(N)=O)NC(=O)[C@@H](NC(=O)[C@H](CCCCNC(=O)COCCOCCNC(=O)COCCOCCNC(=O)CC[C@H](NC(=O)CC[C@H](NC(=O)CCCCCCCCCCCCCCCCCCC(=O)O)C(=O)O)C(=O)O)NC(=O)[C@H](C)NC(=O)[C@H](CCC(N)=O)NC(=O)[C@H](CCC(=O)O)NC(=O)[C@H](CCCNC(=N)N)NC(=O)[C@H](C)NC(=O)[C@H](C)NC(=O)[C@H](CCCNC(=N)N)NC(=O)[C@H](C)NC(=O)[C@H](CCCNC(=N)N)NC(=O)[C@H](C)NC(=O)[C@H](CCC(N)=O)NC(=O)[C@@H](NC(=O)[C@H](CC(C)C)NC(=O)[C@H](CC(C)C)NC(=O)[C@@H](NC(=O)[C@H](CCC(N)=O)NC(=O)[C@H](CC(C)C)NC(=O)[C@H](CC(C)C)NC(=O)CNC(=O)[C@@H](NC(=O)[C@@H]1CCCN1C(=O)[C@@H](NC(=O)[C@H](CC(=O)O)NC(=O)[C@H](CC(C)C)NC(=O)[C@H](CO)NC(=O)[C@H](CC(C)C)NC(=O)[C@@H](NC(=O)[C@@H](NC)[C@@H](C)CC)C(C)C)C(C)C)[C@@H](C)CC)[C@@H](C)CC)[C@@H](C)O)[C@@H](C)O)[C@@H](C)CC)C(=O)N[C@@H](C)C(=O)N[C@@H](CCC(=O)O)C(=O)N[C@H](C(N)=O)C(C)C [compound 217] (H-[NMeI]VLSLDVPIGLLQILLTQARARAAREQAK([AEEA-AEEA-γGlu-γGlu-C20 diacid])TN[Aib]EI[Nle]AEV-NH2)

EC50 (hCRHR1; [1]): 3160 nM
EC50 (hCRHR2; [2]): 0.02 nM
SMILES: CCCC[C@H](NC(=O)[C@@H](NC(=O)[C@H](CCC(=O)O)NC(=O)C(C)(C)NC(=O)[C@H](CC(N)=O)NC(=O)[C@@H](NC(=O)[C@H](CCCCNC(=O)COCCOCCNC(=O)COCCOCCNC(=O)CC[C@H](NC(=O)CC[C@H](NC(=O)CCCCCCCCCCCCCCCCCCC(=O)O)C(=O)O)C(=O)O)NC(=O)[C@H](C)NC(=O)[C@H](CCC(N)=O)NC(=O)[C@H](CCC(=O)O)NC(=O)[C@H](CCCNC(=N)N)NC(=O)[C@H](C)NC(=O)[C@H](C)NC(=O)[C@H](CCCNC(=N)N)NC(=O)[C@H](C)NC(=O)[C@H](CCCNC(=N)N)NC(=O)[C@H](C)NC(=O)[C@H](CCC(N)=O)NC(=O)[C@@H](NC(=O)[C@H](CC(C)C)NC(=O)[C@H](CC(C)C)NC(=O)[C@@H](NC(=O)[C@H](CCC(N)=O)NC(=O)[C@H](CC(C)C)NC(=O)[C@H](CC(C)C)NC(=O)CNC(=O)[C@@H](NC(=O)[C@@H]1CCCN1C(=O)[C@@H](NC(=O)[C@H](CC(=O)O)NC(=O)[C@H](CC(C)C)NC(=O)[C@H](CO)NC(=O)[C@H](CC(C)C)NC(=O)[C@@H](NC(=O)[C@@H](NC)[C@@H](C)CC)C(C)C)C(C)C)[C@@H](C)CC)[C@@H](C)CC)[C@@H](C)CC)[C@@H](C)O)[C@@H](C)CC)C(=O)N[C@@H](C)C(=O)N[C@@H](CCC(=O)O)C(=O)N[C@H](C(N)=O)C(C)C [compound 209] (H-[NMeI]VLSLDVPIGLLQILLIQARARAAREQAK([AEEA-AEEA-γGlu-γGlu-C20 diacid])TN[Aib]EI[Nle]AEV-NH2)

More lines, now with the values behind:

SMILES: CC[C@H](C)[C@H](N)C(=O)N[C@H](C(=O)N[C@@H](CC(C)C)C(=O)N[C@@H](CO)C(=O)N[C@@H](CC(C)C)C(=O)N[C@@H](CC(=O)O)C(=O)N[C@H](C(=O)N1CCC[C@H]1C(=O)N[C@H](C(=O)NCC(=O)N[C@@H](CC(C)C)C(=O)N[C@@H](CCCCNC(=O)COCCOCCNC(=O)COCCOCCNC(=O)CC[C@H](NC(=O)CC[C@H](NC(=O)CCCCCCCCCCCCCCCCCCC(=O)O)C(=O)O)C(=O)O)C(=O)N[C@@H](CCC(N)=O)C(=O)N[C@H](C(=O)N[C@@H](CC(C)C)C(=O)N[C@@H](CC(C)C)C(=O)N[C@@H](CCC(=O)O)C(=O)N[C@@H](CCC(N)=O)C(=O)N[C@@H](C)C(=O)N[C@@H](CCCNC(=N)N)C(=O)N[C@@H](C)C(=O)N[C@@H](CCCNC(=N)N)C(=O)N[C@@H](C)C(=O)N[C@@H](C)C(=O)N[C@@H](CCCNC(=N)N)C(=O)N[C@@H](CCC(=O)O)C(=O)N[C@@H](CCC(N)=O)C(=O)N[C@@H](C)C(=O)N[C@H](C(=O)N[C@H](C(=O)N[C@@H](CC(N)=O)C(=O)N[C@@H](C)C(=O)N[C@@H](CCC(=O)O)C(=O)N[C@H](C(=O)N[C@@H](CC(C)C)C(=O)N[C@@H](C)C(=O)N[C@@H](CCC(=O)O)C(=O)N[C@H](C(N)=O)C(C)C)[C@@H](C)CC)[C@@H](C)O)[C@@H](C)O)[C@@H](C)CC)[C@@H](C)CC)C(C)C)C(C)C [SEQ ID NO: 261] (H-IVLSLDVPIGLK([AEEA-AEEA-γGlu-γGlu-C20 diacid])QILLEQARARAAREQATTNAEILAEV-NH2)
EC50 (hCRHR1; purified peptides, CHO-K1 cells stably expressing hCRHR1, cAMP HTRF, read-out: hCRHR1 EC50): > 5000 nM
Selectivity ratio (hCRHR1/ hCRHR2) (hCRHR2; hCRHR1-EC50/hCRHR2-EC50): >208
EC50 (hCRHR2; purified peptides, CHO-K1 cells stably expressing hCRHR2, cAMP HTRF, read-out: hCRHR2 EC50): 24 nM

SMILES: CC[C@H](C)[C@H](N)C(=O)N[C@H](C(=O)N[C@@H](CC(C)C)C(=O)N[C@@H](CO)C(=O)N[C@@H](CC(C)C)C(=O)N[C@@H](CC(=O)O)C(=O)N[C@H](C(=O)N1CCC[C@H]1C(=O)N[C@H](C(=O)NCC(=O)N[C@@H](CC(C)C)C(=O)N[C@@H](CC(C)C)C(=O)N[C@@H](CCC(N)=O)C(=O)N[C@H](C(=O)N[C@@H](CC(C)C)C(=O)N[C@@H](CC(C)C)C(=O)N[C@@H](CCC(=O)O)C(=O)N[C@@H](CCC(N)=O)C(=O)N[C@@H](C)C(=O)N[C@@H](CCCNC(=N)N)C(=O)N[C@@H](C)C(=O)N[C@@H](CCCNC(=N)N)C(=O)N[C@@H](CCC(N)=O)C(=O)N[C@@H](C)C(=O)N[C@@H](CCCNC(=N)N)C(=O)N[C@@H](CCC(=O)O)C(=O)N[C@@H](CCC(N)=O)C(=O)N[C@@H](C)C(=O)N[C@@H](CCCCNC(=O)COCCOCCNC(=O)COCCOCCNC(=O)CC[C@H](NC(=O)CC[C@H](NC(=O)CCCCCCCCCCCCCCCCCCC(=O)O)C(=O)O)C(=O)O)C(=O)N[C@H](C(=O)N[C@@H](CC(N)=O)C(=O)N[C@@H](C)C(=O)N[C@@H](CCC(=O)O)C(=O)N[C@H](C(=O)N[C@@H](CC(C)C)C(=O)N[C@@H](C)C(=O)N[C@@H](CCC(=O)O)C(=O)N[C@H](C(N)=O)[C@@H](C)CC)[C@@H](C)CC)[C@@H](C)O)[C@@H](C)CC)[C@@H](C)CC)C(C)C)C(C)C [SEQ ID NO: 29] (H-IVLSLDVPIGLLQILLEQARARQAREQAK([AEEA-AEEA-γGlu-γGlu-C20 diacid])TNAEILAEI-NH2)
EC50 (hCRHR1; Table 3, matched molecular pairs X^38 L vs Nle, peptide library of Example 4, read-out: hCRHR1 pEC50 (converted)): 39800 nM
EC50 (hCRHR2; Table 3, matched molecular pairs X^38 L vs Nle, peptide library of Example 4, read-out: hCRHR2 pEC50 (converted)): 0.251 nM

SMILES: CC[C@H](C)[C@H](N)C(=O)N[C@H](C(=O)N[C@@H](CC(C)C)C(=O)N[C@@H](CO)C(=O)N[C@@H](CC(C)C)C(=O)N[C@@H](CC(=O)O)C(=O)N[C@H](C(=O)N1CCC[C@H]1C(=O)N[C@H](C(=O)NCC(=O)N[C@@H](CC(C)C)C(=O)N[C@@H](CC(C)C)C(=O)N[C@@H](CCC(N)=O)C(=O)N[C@H](C(=O)N[C@@H](CC(C)C)C(=O)N[C@@H](CC(C)C)C(=O)N[C@@H](CO)C(=O)N[C@@H](CCC(N)=O)C(=O)N[C@@H](C)C(=O)N[C@@H](CCCNC(=N)N)C(=O)N[C@@H](C)C(=O)N[C@@H](CCCNC(=N)N)C(=O)N[C@@H](C)C(=O)N[C@@H](C)C(=O)N[C@@H](CCCNC(=N)N)C(=O)N[C@@H](CCC(=O)O)C(=O)N[C@@H](CCC(N)=O)C(=O)N[C@@H](C)C(=O)N[C@@H](CCCCNC(=O)COCCOCCNC(=O)COCCOCCNC(=O)CC[C@H](NC(=O)CC[C@H](NC(=O)CCCCCCCCCCCCCCCCCCC(=O)O)C(=O)O)C(=O)O)C(=O)N[C@H](C(=O)N[C@@H](CC(N)=O)C(=O)N[C@@H](C)C(=O)N[C@@H](CCC(=O)O)C(=O)N[C@H](C(=O)N[C@@H](CC(C)C)C(=O)N[C@@H](C)C(=O)N[C@@H](CCC(=O)O)C(=O)N[C@H](C(N)=O)[C@@H](C)CC)[C@@H](C)CC)[C@@H](C)O)[C@@H](C)CC)[C@@H](C)CC)C(C)C)C(C)C [compound 88] (H-IVLSLDVPIGLLQILLSQARARAAREQAK([AEEA-AEEA-γGlu-γGlu-C20 diacid])TNAEILAEI-NH2)
EC50 (hCRHR1; library peptides, matched molecular pairs L vs Nle in position X^38, read-out: Potency hCRHR1 pEC50 (converted)): 39800 nM
EC50 (hCRHR2; library peptides, matched molecular pairs L vs Nle in position X^38, read-out: Potency hCRHR2 pEC50 (converted)): 0.631 nM
